From BigSolDB 2.1

## CC(=O)C1=CC[C@H]2[C@@H]3CCC4=CC(=O)C=C[C@]4(C)[C@H]3[C@@H](O)C[C@]12C
In acetone, 298.15 K
  solubility (mole fraction): 0.00192
In acetone, 303.15 K
  solubility (mole fraction): 0.00215
In acetone, 308.15 K
  solubility (mole fraction): 0.00243
In acetone, 313.15 K
  solubility (mole fraction): 0.00275
In acetone, 318.15 K
  solubility (mole fraction): 0.00303
In acetone, 323.15 K
  solubility (mole fraction): 0.00351
In acetone, 328.15 K
  solubility (mole fraction): 0.0038
In ethanol, 298.15 K
  solubility (mole fraction): 0.00213
In ethanol, 303.15 K
  solubility (mole fraction): 0.00252
In ethanol, 308.15 K
  solubility (mole fraction): 0.00291
In ethanol, 313.15 K
  solubility (mole fraction): 0.00335
In ethanol, 318.15 K
  solubility (mole fraction): 0.00395
In ethanol, 323.15 K
  solubility (mole fraction): 0.00461
In ethanol, 328.15 K
  solubility (mole fraction): 0.00541
In ethanol, 333.15 K
  solubility (mole fraction): 0.00625
In ethanol, 338.15 K
  solubility (mole fraction): 0.00722
In ethanol, 343.15 K
  solubility (mole fraction): 0.00844
In ethanol, 348.15 K
  solubility (mole fraction): 0.0097
